Test results as given in patent publication US11857567B2, “Hypertonic pharmaceutical compositions containing an anti-platinum chemoprotectant agent” (Decibel Therapeutics, Inc., priority 2018, dated 2024).

Test system: cisplatin-induced hearing loss in guinea pigs
Test: Hearing protection by locally delivered STS Composition from cisplatin challenge (ABR)
Type: in vivo, guinea pig
Settings: at both 24 kHz and 32 kHz
Excerpt: Historical ABR data were used to define a baseline. The animals were anesthetized with tiletamine hydrochloride and zolazepam hydrochloride (Zoletil). Acoustic stimuli were delivered via an earphone. Needle electrodes were placed near the ear canal at the causoventral position, the vertex of the skull, and a ground at the lower leg. The stimulus level was from 10 to 90 dB in 5 dB steps, and the tone-pip frequencies were 4, 24, and 32 kHz. The ceiling sound pressure level was 90 dB. ABR threshold was observed by visual inspection of stacked waveforms as the lowest sound pressure level, at which the waveform was above the noise floor.
An aqueous composition of 0.5M sodium thiosulfate/2% (w/v) hyaluronan (STS Composition) or vehicle was dosed intratympanically onto the round window in the left ear (LE) as described above, and the right ear (RE) was left untreated in the guinea pigs (FIG. 5).
Because of heterogeneity of hearing loss after cisplatin challenge, the untreated right ears was used to select the animals with hearing loss. There were 21 animals with right ear threshold >60 dB at 32 kHz. Of these 21 animals, 3 with otitis media were excluded, leaving 18 animals for the final analysis. 10 animals were dosed with vehicle and 8 animals were dosed with STS Composition (FIG. 4B). […]

In the case of `O=S([O-])([O-])=S.[Na+].[Na+]` [sodium thiosulfate], the “protection (on average)” value is reported as 80%.
